# Reference: patent publication US20230226072A1 (priority 2020, published 2023)
# Tested on: Influenza A N1H1
# Test: In vivo antiviral efficacy in Balb/c mice, lung virus titer by TCID50 assay
# Conditions: methylene blue replaced by riboflavin; prophylactic and therapeutic application
# Method: Mice received a daily MB-dose of 5 mg/kg based on a daily drinking volume of ˜5-6 ml and a body weight of 25-35 g. The control group received drinking water with saccharin but without methylene blue.
# Mice were euthanized and lungs were removed on day 3 post challenge with influenza H1N1 virus. These tissue samples were stored at <−60° C. until they were transferred into homogenization tubes containing 1 ml cell medium supplemented with antibiotics. The lungs were homogenized two times at 5000 rpm for twenty seconds with 10 seconds pause between the intervals with a tissue homogenizer. The infectious H1N1 virus titer in homogenized lung samples was determined by a TCID50 assay performed by titration on Madin-Darby Canine Kidney (MDCK) cells as described above.
smiles,measurement,value
"Cc1cc2nc3c(=O)[nH]c(=O)nc-3n(C[C@H](O)[C@H](O)[C@H](O)CO)c2cc1C [riboflavin, 7,8-dimethyl-10-[(2S,3S,4R)-2,3,4,5-tetrahydroxypentyl]benzo[g]pteridine-2,4-dione]","viricidal efficacy, lung virus titer (TCID50 assay), expected",Analogous results are expected
